{
  "source": "ChEMBL document CHEMBL6078622",
  "about": "“Enhancing outer membrane permeability of tetracycline antibiotics in P. aeruginosa using TOB-CIP conjugates” (RSC Med Chem, 2024)",
  "assay_type_in_all_cases": "functional",
  "key": {"[1]": {"tested_on": "Pseudomonas aeruginosa", "experiment": "Antibacterial activity against Pseudomonas aeruginosa PA114228 assessed as minocycline MIC by CLSI based broth-microdilution method"}, "[2]": {"tested_on": "Pseudomonas aeruginosa", "experiment": "Synergistic antibacterial activity against Pseudomonas aeruginosa PA262 assessed as fractional inhibitory concentration index in presence of minocycline by checkerboard assay"}, "[3]": {"tested_on": "Pseudomonas aeruginosa", "experiment": "Antibacterial activity against Pseudomonas aeruginosa PAO1 assessed as inhibition of visible bacterial growth by CLSI based broth-microdilution method"}, "[4]": {"tested_on": "Pseudomonas aeruginosa", "experiment": "Synergistic antibacterial activity against Pseudomonas aeruginosa PA259 assessed as fold change in doxycycline MIC by CLSI based broth-microdilution method relative to doxycycline alone"}, "[5]": {"tested_on": "Pseudomonas aeruginosa", "experiment": "Synergistic antibacterial activity against Pseudomonas aeruginosa PA114228 in presence of minocycline by checkerboard assay"}, "[6]": {"tested_on": "Pseudomonas aeruginosa", "experiment": "Antibacterial activity against Pseudomonas aeruginosa PA200 assessed as eravacycline MIC by CLSI based broth-microdilution method"}, "[7]": {"tested_on": "Pseudomonas aeruginosa", "experiment": "Antibacterial activity against Pseudomonas aeruginosa PA264 assessed as minocycline MIC by CLSI based broth-microdilution method"}, "[8]": {"tested_on": "Pseudomonas aeruginosa", "experiment": "Synergistic antibacterial activity against Pseudomonas aeruginosa PA200 assessed as fractional inhibitory concentration index in presence of minocycline by checkerboard assay"}, "[9]": {"tested_on": "Pseudomonas aeruginosa", "experiment": "Synergistic antibacterial activity against Pseudomonas aeruginosa PA259 in presence of tigecycline by checkerboard assay"}, "[10]": {"tested_on": "Pseudomonas aeruginosa", "experiment": "Synergistic antibacterial activity against Pseudomonas aeruginosa PA101243 in presence of minocycline by checkerboard assay"}, "[11]": {"tested_on": "Pseudomonas aeruginosa", "experiment": "Synergistic antibacterial activity against Pseudomonas aeruginosa PA259 assessed as fold change in eravacycline MIC by CLSI based broth-microdilution method relative to eravacycline alone"}, "[12]": {"tested_on": "Pseudomonas aeruginosa", "experiment": "Antibacterial activity against Pseudomonas aeruginosa PA262 assessed as inhibition of visible bacterial growth by CLSI based broth-microdilution method"}, "[13]": {"tested_on": "Pseudomonas aeruginosa", "experiment": "Synergistic antibacterial activity against Pseudomonas aeruginosa PA264 assessed as fractional inhibitory concentration index in presence of doxycycline by checkerboard assay"}, "[14]": {"tested_on": "Pseudomonas aeruginosa", "experiment": "Antibacterial activity against Pseudomonas aeruginosa PA100036 assessed as eravacycline MIC by CLSI based broth-microdilution method"}, "[15]": {"tested_on": "Pseudomonas aeruginosa", "experiment": "Synergistic antibacterial activity against Pseudomonas aeruginosa PA264 assessed as fold change in doxycycline MIC by CLSI based broth-microdilution method relative to doxycycline alone"}, "[16]": {"tested_on": "Pseudomonas aeruginosa", "experiment": "Antibacterial activity against Pseudomonas aeruginosa PAO1 assessed as inhibition of bacterial growth by measuring fold change in MIC in presence of 5 % fetal bovine serum by CLSI protocol based assay"}, "[17]": {"tested_on": "Pseudomonas aeruginosa", "experiment": "Synergistic antibacterial activity against Pseudomonas aeruginosa PA114228 in presence of doxycycline by checkerboard assay"}},
  "data": [
    {"compound": "Cl.Cl.Cl.Cl.Cl.Cl.NC[C@H]1O[C@H](O[C@H]2[C@H](OCCCCCCCCCCCCNC(=O)c3cn(C4CC4)c4cc(N5CCNCC5)c(F)cc4c3=O)[C@@H](O[C@H]3O[C@H](CO)[C@@H](O)[C@H](N)[C@H]3O)[C@H](N)C[C@@H]2N)[C@H](N)C[C@@H]1O", "values": [
      {"measurement": "MIC", "setting": "[1]", "value": 64, "unit": "µg/mL"},
      {"measurement": "fractional inhibitory concentration index (FICI)", "setting": "[2]", "value": 0.008},
      {"measurement": "MIC", "setting": "[3]", "value": "> 128", "unit": "µg/mL"},
      {"measurement": "fold change (FC)", "setting": "[4]", "value": 128},
      {"measurement": "MIC", "setting": "[5]", "value": 8, "unit": "µg/mL"},
      {"measurement": "MIC", "setting": "[6]", "value": 0.031, "unit": "µg/mL"},
      {"measurement": "MIC", "setting": "[7]", "value": 0.5, "unit": "µg/mL"},
      {"measurement": "fractional inhibitory concentration index (FICI)", "setting": "[8]", "value": 0.312},
      {"measurement": "MIC", "setting": "[9]", "value": 8, "unit": "µg/mL"},
      {"measurement": "MIC", "setting": "[10]", "value": 8, "unit": "µg/mL"},
      {"measurement": "fold change (FC)", "setting": "[11]", "value": 512},
      {"measurement": "MIC", "setting": "[12]", "value": "> 128", "unit": "µg/mL"},
      {"measurement": "fractional inhibitory concentration index (FICI)", "setting": "[13]", "value": 0.015},
      {"measurement": "MIC", "setting": "[14]", "value": 0.125, "unit": "µg/mL"},
      {"measurement": "fold change (FC)", "setting": "[15]", "value": 16},
      {"measurement": "fold change (FC)", "setting": "[16]", "value": ">128"},
      {"measurement": "MIC", "setting": "[17]", "value": 8, "unit": "µg/mL"}
    ]}
  ]
}
